# Read-outs that look alike come from different tables or passages of the source.
# Key:
# metastatic solid tumour = test: Anti-tumour activity in patients, WHO criteria; format: in vivo, human; settings: 41 patients, 9-800 mg m-2
# [1] = design: method as in Evans et al, 1992; Paxton et al, 1992, 1993a, 1993b; settings: preclinical; ref Evans et al, 1992; Paxton et al, 1992, 1993a, 1993b; cited from earlier work
# mice = settings: murine data, cited from earlier work
# Colon 38 = system: Colon 38; design: method as in Baguley et al, 1995; settings: Colon 38 tumour; ref Baguley et al, 1995; cited from earlier work
# Lewis lung carcinoma = system: Lewis lung carcinoma; design: method as in Atwell et al, 1987; Finlay and Baguley, 1989; settings: Lewis lung carcinoma in mice; ref Atwell et al, 1987; Finlay and Baguley, 1989; cited from earlier work
# murine 16/C tumour = system: murine 16/C tumour; design: method as in Baguley et al, 1995; settings: ref Baguley et al, 1995; cited from earlier work
# clinical = settings: human, in vivo; for Cmax: 800 mg
# [2] = system: sublines of the Jurkat human leukaemia cell line, which have reduced amounts of topoisomerase II; design: method as in Finlay et al, 1993; settings: ref Finlay et al, 1993; cited from earlier work
# P388 leukaemia = settings: cited from earlier work
# [3] = system: patients with solid tumours
# [4] = design: method as in Evans et al, 1992; Paxton et al, 1992, 1993a, 1993b; settings: preclinical pharmacology studies; ref Evans et al, 1992; Paxton et al, 1992, 1993a, 1993b; cited from earlier work
# L1210 leukaemia = settings: cited from earlier work
# [5] = system: multi-drug resistant subline of the P388 leukaemia expressing the P-glycoprotein; design: method as in Baguley et al, 1990; settings: ref Baguley et al, 1990; cited from earlier work
# [6] = human, in vivo
# Colon 11 A = system: Colon 11 A; design: method as in Baguley et al, 1995; settings: Colon 11 A tumour; ref Baguley et al, 1995; cited from earlier work
# cancer patients = system: cancer patients; design: method as in Abigerges et al, 1996; settings: phase I trial; ref Abigerges et al, 1996; cited from earlier work
smiles,measurement,setting,value
"CN(C)CCNC(=O)c1cccc2cc3ccccc3nc12.Cl.Cl [DACA, N-[2-(dimethylamino)ethyl] acridine-4-carboxamide dihydrochloride]",objective responses according to WHO criteria,metastatic solid tumour,no objective responses
same,unbound fraction in mouse plasma,[1],15.8%
same,LD10,mice; five consecutive daily i.v. doses,approximately 30 mg kg-1 per day
same,LD10,mice; single i.v. dose,58 mg/kg
same,activity in vivo,Colon 38,highly active
same,activity in vivo,Lewis lung carcinoma,highly active
same,activity in vivo,murine 16/C tumour,highly active
same,Cmax,"clinical; female, Cmax",3150 ng/mL
same,Cmax,clinical; Cmax (range),2310 to 12100 ng/mL
same,half-life,clinical; T1/2,2.22 h
same,Tmax,clinical; Tmax,2.91 h
same,Vd,clinical; Vss,143 L
same,clearance,clinical; plasma clearance,1400 mL/min
same,sensitivity of Jurkat sublines with reduced topoisomerase II,[2],retain sensitivity
same,activity in vivo,P388 leukaemia,only moderate activity
same,maximum tolerated dose (MTD),"[3]; 3 h i.v. infusion on 3 successive days, repeated every 3 weeks",800 mg m-2 d-1
same,dose-limiting toxicity (DLT),"[3]; 3 h i.v. infusion on 3 successive days, 800 mg m-2",pain during the infusion
same,clinically significant myelosuppression,[3]; all dose levels,rare
same,"tissue levels in brain, liver, kidney and heart relative to plasma",[4],substantially higher
same,activity in vivo,L1210 leukaemia,only moderate activity
same,activity against multi-drug resistant P388 subline expressing P-glycoprotein,[5],maintains activity
same,T1/2,[6],2.08 h
same,Vss,[6],145.21
same,highest AUC on day 3 of all patients,[6],54.2
same,plasma clearance,[6],81.11
same,relationship between dose and AUC,[6],linear relationship
same,activity in vivo,Colon 11 A,highly active
COc1cccc2c1C(=O)c1c(O)c3c(c(O)c1C2=O)C[C@@](O)(C(=O)CO)C[C@@H]3O[C@H]1C[C@H](N)[C@H](O)[C@H](C)O1 [doxorubicin],sensitivity of Jurkat sublines with reduced topoisomerase II,[2],highly resistant
COc1cc([C@@H]2c3cc4c(cc3[C@@H](O[C@@H]3O[C@@H]5CO[C@@H](C)O[C@H]5[C@H](O)[C@H]3O)[C@H]3COC(=O)[C@H]23)OCO4)cc(OC)c1O [etoposide],sensitivity of Jurkat sublines with reduced topoisomerase II,[2],highly resistant
Cc1cnc(NCCCN(C)C)c2c1[nH]c1ccc3cc(O)ccc3c12 [intoplicine],dose-limiting toxicity,cancer patients,hepatotoxicity

# Reference: PMC2363132, “Phase I and pharmacokinetic study of DACA (XR5000): a novel inhibitor of topoisomerase I and II” (British Journal of Cancer, 1999)
